Source: US20200207782A1, “CHEMICALLY ACTIVATED WATER-SOLUBLE PRODRUG” (SUMITOMO DAINIPPON PHARMA CO., LTD, priority 2017, published 2020)
Values after ≈ are worked out from the molar mass of the structure shown. Values joined by “and” are separate entries in the source; they are usually repeats but may differ in a detail not shown here. Equal entries are not always repeated. Structures can show the parent of a compound that is named as a salt. Each block holds one compound with its values, some of them ahead of it.

What was measured:
physchem = conditions: thermodynamic from solid; for solubility at 24 h: pH 2, aqueous buffer
Experimental: The solubility of the water-soluble prodrugs described in the Examples and the Reference Examples was measured. […] The filtrate was measured by HPLC.

[1] = Solution stability test (residual ratio and generation of active form in buffers of pH 2.0 to 9.0); assay type: physicochemical; set-up: Rate of generation of active form after 24 hours in buffer with pH of 7.4: tested at 25 µM; conditions: for Residual ratio / Rate of generation of active form after 24 hours in buffer with pH of 7.4: 25° C.; for Residual ratio: 25 umol/L; for Degradation behaviour in buffers (in words): pH 2.0 to 9.0; for Rate of generation of active form after 24 hours in buffer with pH of 7.4: pH 7.4 buffer
Experimental: The test compounds were incubated at 25° C. at a concentration of 25 umol/L in a buffer prepared to have a pH of 2.0, 3.0, 5.0, 7.4, and 9.0. The compounds were measured by HPLC after 0, 3, 6, 9, 12, and 24 hours.
The buffers used at each pH are the following. • pH 2.0: 50 mmol/L glycine buffer • pH 3.0: 50 mmol/L citrate buffer • pH 5.0: 50 mmol/L citrate buffer • pH 7.4: 50 mmol/L phosphate buffer • pH 9.0: 50 mmol/L glycine buffer
The measurement conditions for HPLC are the following.
The yield of the Example and Reference Example compounds and active forms is calculated with each of the peak area of the Example and Reference Example compounds at 0 minutes and the peak area upon dissolution of the corresponding active form at 100 umol/L as 100%. The yield is denoted in terms of %

[2] = Evaluation of conversion rate to active form in CD1 mouse plasma; assay type: in vitro ADME; conditions: CD1 mouse plasma, incubation time 120 minutes
Experimental: (§1) The ratio of decrease of a test compound and the conversion ratio to a corresponding active form (2-acetylthieno[3,2-f][1]benzofuran-4,8-dione) in human plasma and CD1 mouse plasma were measured for Example 1.
(§2) The test compounds were incubated at 37° C. at a concentration of 10 umol/L in human plasma (cat. no. 12250210, Cosmo Bio) and CD1 mouse plasma (cat. no. AP3054, KAC) and retrieved for a given time (0, 5, 10, 30, 60, and 120 minutes) and deproteinized, then analyzed by LC-MS. Acetonitrile comprising each of 10% quantity of 1 mol/L hydrochloric acid, 1% quantity of 46% citric acid, and phenytoin as an internal standard was used for deproteinization.
(§3) LC-MS measurement conditions were the following.
(§4) The yield of the Examples compounds and active form 2-acetylthieno[3,2-f][1]benzofuran-4,8-dione is calculated with each of the peak area of the Example compounds at 0 minutes and the peak area upon dissolution of 2-acetylthieno[3,2-f][1]benzofuran-4,8-dione at 100 umol/L as 100%. The yield is denoted in terms of %.
(§5) In the same manner as Example 1, the conversion ratio to an active form was measured for each of the various test compounds in human plasma and CD1 mouse plasma, with incubation time as 120 minutes. It was confirmed that the series of compounds of the invention was converted to an active form with a small interspecies difference in human plasma and CD1 mouse plasma.
(§6) The yield of the active forms is calculated with the each peak area upon dissolution of the generated active form at 100 umol/L as 100%. The yield is denoted in terms of %.

[3] = Evaluation of conversion rate to active form in human plasma; assay type: in vitro ADME; conditions: Human plasma, incubation time 120 minutes
Experimental: as §1, §2, §3, §4, §5, §6

solubility (physchem; 50 mmol/L glycine buffer, pH 3, aqueous buffer): 1 µg/mL (≈ 3.9 µM)
Structure (SMILES): CC(=O)c1cc2c(o1)C(=O)c1cccc(O)c1C2=O [2-acetyl-5-hydroxynaphtho[2,3-b]furan-4,9-dione, reference compound]

solubility at 24 h (physchem; 50 mmol/L glycine buffer): 97 µg/mL (≈ 563 µM)
Structure (SMILES): CC1=CC(=O)c2ccccc2C1=O [2-methylnaphthalen-1,4-dione, reference compound]

solubility at 24 h (physchem; 50 mmol/L glycine buffer): 0.3 µg/mL (≈ 0.986 µM)
Structure (SMILES): O=C1C(=O)C(c2ccccc2)=C2OCOC2=C1c1ccccc1 [4,7-diphenyl-1,3-benzodioxol-5,6-dione, reference compound]

Structure (SMILES): Cc1cc(OC(=O)NCCNCC(=O)O)c2ccccc2c1OC(=O)NCCNCC(=O)O [Example 2, 2,2′-[(2-Methylnaphthalene-1,4-diyl)bis(oxycarbonyliminoethane-2,1-diylimino)]diacetic acid dihydrochloride]
solubility at 24 h (physchem): > 10000 µg/mL
Residual ratio ([1]; pH2.0 buffer, 0 hr): 100%
Residual ratio ([1]; pH2.0 buffer, 3 hr): 100%
Residual ratio ([1]; pH2.0 buffer, 6 hr): 99.8%
Residual ratio ([1]; pH2.0 buffer, 9 hr): 99.7%
Residual ratio ([1]; pH2.0 buffer, 12 hr): 102%
Residual ratio ([1]; pH2.0 buffer, 24 hr): 100%
Degradation behaviour in buffers (in words) [1]: pH dependent and chemical degradation progressed
Residual ratio ([1]; pH3.0 buffer, 0 hr): 101%
Residual ratio ([1]; pH3.0 buffer, 3 hr): 101%
Residual ratio ([1]; pH3.0 buffer, 6 hr): 101%
Residual ratio ([1]; pH3.0 buffer, 9 hr): 100%
Residual ratio ([1]; pH3.0 buffer, 12 hr): 100%
Residual ratio ([1]; pH3.0 buffer, 24 hr): 101%
Residual ratio ([1]; pH5.0 buffer, 0 hr): 101%
Residual ratio ([1]; pH5.0 buffer, 3 hr): 101%
Residual ratio ([1]; pH5.0 buffer, 6 hr): 102%
Residual ratio ([1]; pH5.0 buffer, 9 hr): 102%
Residual ratio ([1]; pH5.0 buffer, 12 hr): 100%
Residual ratio ([1]; pH5.0 buffer, 24 hr): 102%
Residual ratio ([1]; pH7.4 buffer, 0 hr): 102%
Residual ratio ([1]; pH7.4 buffer, 3 hr): 50.7%
Residual ratio ([1]; pH7.4 buffer, 6 hr): 32.0%
Residual ratio ([1]; pH7.4 buffer, 9 hr): 16.2%
Residual ratio ([1]; pH7.4 buffer, 12 hr, dihydrochloride): 0%
Residual ratio ([1]; pH7.4 buffer, 24 hr): 0.0%
Rate of generation of active form after 24 hours in buffer with pH of 7.4 [1]: 7%
Residual ratio ([1]; pH9.0 buffer, 0 hr): 44.5%
Residual ratio ([1]; pH9.0 buffer, 3 hr, dihydrochloride): 0%
Residual ratio ([1]; pH9.0 buffer, 6 hr): 0.0%
Residual ratio ([1]; pH9.0 buffer, 9 hr): 0.0%
Residual ratio ([1]; pH9.0 buffer, 12 hr): 0.0%
Residual ratio ([1]; pH9.0 buffer, 24 hr): 0.0%
Stability in solution (in words) ([1]; pH of 2.0, 25° C.): very stable
Stability in solution (in words) ([1]; pH of 3.0, 25° C.): very stable
Stability in solution (in words) ([1]; pH of 5.0, 25° C.): very stable

Structure (SMILES): CC1(C)CCc2c(OC(=O)NCCNCC(=O)O)c(OC(=O)NCCNCC(=O)O)c3ccccc3c2O1 [Example 4, 2,2′-[(2,2-Dimethyl-3,4-dihydro-2H-benzo[H]chromene-5,6-diyl)bis(oxycarbonyliminoethane-2,1-diylimino)]diacetic acid dihydrochloride]
solubility at 24 h (physchem): > 10000 µg/mL
Degradation behaviour in buffers (in words) [1]: pH dependent and chemical degradation progressed
Stability in solution (in words) ([1]; pH of 2.0, 25° C.): sufficient stability
Stability in solution (in words) ([1]; pH of 3.0, 25° C.): sufficient stability

Structure (SMILES): NCCCNC(=O)Oc1c(OC(=O)NCCCN)c(-c2ccccc2)c2c(c1-c1ccccc1)OCO2 [Example 6, 4,7-Diphenyl-1,3-benzodioxole-5,6-diyl bis[(3-aminopropyl)carbamate]dihydrochloride]
solubility at 24 h (physchem): > 10000 µg/mL
Residual ratio ([1]; pH2.0 buffer, 0 hr): 100%
Residual ratio ([1]; pH2.0 buffer, 3 hr): 100%
Residual ratio ([1]; pH2.0 buffer, 6 hr): 100%
Residual ratio ([1]; pH2.0 buffer, 9 hr): 100%
Residual ratio ([1]; pH2.0 buffer, 12 hr): 100%
Residual ratio ([1]; pH2.0 buffer, 24 hr): 100%
Degradation behaviour in buffers (in words) [1]: pH dependent and chemical degradation progressed
Residual ratio ([1]; pH3.0 buffer, 0 hr): 100%
Residual ratio ([1]; pH3.0 buffer, 3 hr): 100%
Residual ratio ([1]; pH3.0 buffer, 6 hr): 100%
Residual ratio ([1]; pH3.0 buffer, 9 hr): 100%
Residual ratio ([1]; pH3.0 buffer, 12 hr): 100%
Residual ratio ([1]; pH3.0 buffer, 24 hr): 100%
Residual ratio ([1]; pH5.0 buffer, 0 hr): 100%
Residual ratio ([1]; pH5.0 buffer, 3 hr): 100%
Residual ratio ([1]; pH5.0 buffer, 6 hr): 99.8%
Residual ratio ([1]; pH5.0 buffer, 9 hr): 99.6%
Residual ratio ([1]; pH5.0 buffer, 12 hr): 99.5%
Residual ratio ([1]; pH5.0 buffer, 24 hr): 99.5%
Residual ratio ([1]; pH7.4 buffer, 0 hr): 96.8%
Residual ratio ([1]; pH7.4 buffer, 3 hr): 65.8%
Residual ratio ([1]; pH7.4 buffer, 6 hr): 45.2%
Residual ratio ([1]; pH7.4 buffer, 9 hr): 31.4%
Residual ratio ([1]; pH7.4 buffer, 12 hr): 22.2%
Residual ratio ([1]; pH7.4 buffer, 24 hr): 17% and 16.5%
Residual ratio ([1]; pH9.0 buffer, 0 hr): 10.4%
Residual ratio ([1]; pH9.0 buffer, 3 hr): 0.4%
Residual ratio ([1]; pH9.0 buffer, 6 hr): 0.7%
Residual ratio ([1]; pH9.0 buffer, 9 hr): 0.7%
Residual ratio ([1]; pH9.0 buffer, 12 hr): 0.9%
Residual ratio ([1]; pH9.0 buffer, 24 hr): 0.9%
Stability in solution (in words) ([1]; pH of 2.0, 25° C.): very stable
Stability in solution (in words) ([1]; pH of 3.0, 25° C.): very stable
Stability in solution (in words) ([1]; pH of 5.0, 25° C.): very stable

Structure (SMILES): CN1CC[C@H](c2c(O)cc(OC(=O)N(C)CCN)c3c(=O)cc(-c4ccccc4Cl)oc23)[C@H](O)C1 [Example 9, 2-(2-chlorophenyl)-7-hydroxy-8-[(3S,4R)-3-hydroxy-1-methylpiperidin-4-yl]-4-oxo-4H-chromen-5-yl (2-aminoethyl)methylcarbamate ditrifluoroacetate]
Degradation behaviour in buffers (in words) [1]: pH dependent and chemical degradation progressed
Rate of generation of active form after 24 hours in buffer with pH of 7.4 [1]: 23%
Stability in solution (in words) ([1]; pH of 2.0, 25° C.): stable
Stability in solution (in words) ([1]; pH of 3.0, 25° C.): stable
Stability in solution (in words) ([1]; pH of 5.0, 25° C.): stable

Structure (SMILES): CNCCN(C)C(=O)Oc1cc(O)c2c(=O)cc(-c3ccccc3Cl)oc2c1[C@H]1CCN(C)C[C@H]1O [Example 10, 2-(2-Chlorophenyl)-5-hydroxy-8-[(3S,4R)-3-hydroxy-1-methylpiperidin-4-yl]-4-oxo-4H-chromen-7-yl methyl[2-(methylamino)ethyl]carbamate ditrifluoroacetate]
Degradation behaviour in buffers (in words) [1]: pH dependent and chemical degradation progressed
Rate of generation of active form after 24 hours in buffer with pH of 7.4 [1]: 96%
Stability in solution (in words) ([1]; pH of 2.0, 25° C.): sufficient stability
Stability in solution (in words) ([1]; pH of 3.0, 25° C.): sufficient stability

Structure (SMILES): CNCCN(C)C(=O)Oc1cc(O)c([C@H]2CCN(C)C[C@H]2O)c2oc(-c3ccccc3Cl)cc(=O)c12 [Example 11, 2-(2-Chlorophenyl)-7-hydroxy-8-[(3S,4R)-3-hydroxy-1-methylpiperidin-4-yl]-4-oxo-4H-chromen-5-yl methyl[2-(methylamino)ethyl]carbamate ditrifluoroacetate]
Degradation behaviour in buffers (in words) [1]: pH dependent and chemical degradation progressed
Stability in solution (in words) ([1]; pH of 2.0, 25° C.): stable
Stability in solution (in words) ([1]; pH of 3.0, 25° C.): stable
Stability in solution (in words) ([1]; pH of 5.0, 25° C.): stable

Structure (SMILES): COC(=O)[C@H](CCNC(=O)Oc1c(C)c(CCCCCCCCCCOC(=O)OC(C)(C)C)c(OC(=O)NCC[C@H](NC(=O)OC(C)(C)C)C(=O)OC)c(OC)c1OC)NC(=O)OC(C)(C)C [Reference Example 11, Dimethyl (2S,2′S)-4,4′-[(2-{10-[(tert-butoxycarbonyl)oxy]decayl}-5,6-dimethoxy-3-methylbenzene-1,4-diyl)bis(oxycarbonylimino)]bis{2-[(tert-butoxycarbonyl)amino]butanoate}]
Conversion ratio to an active form (Measurement value %) [2]: 100%
Conversion ratio to an active form (Measurement value %) [3]: 100%
Rate of generation of active form after 24 hours in buffer with pH of 7.4 [1]: 91%
